The nature of data set [1]: Topical treatment of back pain in a patient with kyphosis. The conditions noted are these: applied to back in hyaluronic acid.
The conditions of data set [2]: human, in vivo.
Data set [3] relates to Fisher Bladder Carcinoma tumor tissue. Nature of the data set: Intratumour injection study, radioactivity in tumor tissue. The data set is classed as in vivo, Fisher 344 rat. The conditions noted are these: intratumor injection; 1 h, 6 h.
Experimental: Animal: Fisher 344 rat, male 200-250g b. […] These drugs were administrated by intratumor injection. […] At the same time, injection into normal skin (on the left frank) was carried out similarly.
A short description of data set [4]: Intratumour injection study, radioactivity in normal skin. The data set is classed as in vivo, Fisher 344 rat. The conditions noted are these: injection into normal skin; 1 h, 6 h.
Experimental: Animal: Fisher 344 rat, male 200-250g At the same time, injection into normal skin (left frank) was carried out similarly. […] At the same time, injection into normal skin (on the left frank) was carried out similarly.
A short description of data set [5]: Intravenous injection, radioactivity in liver. The data set is classed as in vivo, Fisher 344 rat. Also noted: unit not given beside the values. As to conditions: mean ± S.E.
Data set [6] concerns Fisher Bladder Carcinoma tumor tissue. Description: Intravenous injection, radioactivity in tumor tissue. As to conditions: mean ± S.E., FIG. 5 plots CPM.
Experimental: (§1) Tumor (2 mm viable tumor fragment) was transplanted subcutaneously on the right frank by trocar
(§2) Treatment was started when tumor size is about 1.5 cm.(2 weeks after implantation.) . . . tumor weight: 1.0+0.3 g
(§3) The drug was administered Intravenously (through the penile vein)
(§4) Group A: 5-FU 20 mg/kg (3H-5-FU30 μCi)+saline
(§5) Tumor was surgically removed (and blood was collected) at *predeterminated time after drug administration. Tumor weight was measured (and blood was centrifuged to obtain a plasma sample.)
(§6) *15 min, 60 min, 3 hr, 4 hrs, . . . after drug administration . . . .
(§7) Radioactivity level in tumor tissue was counted, using a liquid scintillation counter.
A short description of data set [7]: Chronic conditions - evaluations of patients treated with […] hyaluronic acid with 3% diclofenac acid (HD). The data set is classed as in vivo, human (patients). As to conditions: single patient.
A short description of data set [8]: Toxicity of indomethacin solubilized in n-methyl glucamine with hyaluronic acid in animals. The data set is classed as in vivo. On the procedure:
As a major amount of soluble indomethacin may be incorporated into the formulation, or composition, the indomethacin may be solubilized using n-methyl glucamine at a dilution of 5 mg/ml of n-methyl glucamine (NMG). This substance is then passed through a […] Milipore filter to produce sterility. […] The solution of indomethacin and NMG may be mixed with, for example, "LifeCore™" hyaluronic acid in dosage amounts discussed above. This produces an appropriate mixture and can be administered safely.

In another data set the test system is psoriasis. Description: Topical treatment of a patient with psoriasis. The conditions noted are these: carried in hyaluronic acid. The data set is classed as in vivo, human (patient).
The subject of data set [9] is Fisher Bladder Carcinoma tumor tissue. The conditions noted are these: rat, in vivo, iv.
Experimental: as §1, §2, §3, §4, §5, §6, §7
For data set [10] the following is noted: monkey, in vivo; cited from earlier work.

“Also recorded” adds a separate entry of the source. Counter-ions that a name gives are not always drawn. Like-named read-outs stand apart in the source and are kept apart here.

Experimental for psoriasis: In another patient, a drug (methotrexate) was carried in hyaluronic acid and applied topically to a patient with psoriasis.

`O=C(c1ccccc1)c1ccc2n1CCC2C(=O)O` (racemic) [Toradol™, (+/-) tromethamine salt of ketorolac]: the Back pain entry in [1] was “the back pain eased and disappeared for some time”. The Side effects entry in data set [2] is “there were no side effects”.

Consider `O=c1[nH]cc(F)c(=O)[nH]1` [Formulation 5-FU, 5-Fluoracil], for which the “Radioactivity retention in tumor tissue (in words)” value in data set [3] is given as “radioactivity immediately disappeared from the tumor or the normal tissue”. In addition, in data set [4], the “Radioactivity clearance in normal tissue (skin) (in words)” value is given as “radioactivity immediately disappeared from the tumor or the normal tissue”. Also, the Radioactivity in liver stood at 18680 ± 625 in [5] (15 min after i.v.), 5451 ± 841 in data set [5] (60 min after i.v.), 2230 ± 449 in data set [5] (3 hrs after i.v.) and 1129 ± 70 in data set [5] (5 hrs after i.v.). Further, the Radioactivity in tumor in data set [6] (15 min after i.v.) was determined as 2810 ± 165; in data set [6] (60 min after i.v.), 1751 ± 149; in data set [6] (3 hrs after i.v.), 1493 ± 227; in data set [6] (5 hrs after i.v.), 853 ± 129.

Consider `O=C(OCC(O)CO)c1ccccc1Nc1ccnc2c(C(F)(F)F)cccc12` (centres unmarked) [Idarac], for which the “Comments on outcome (in words)” value in data set [7] is reported as “poor response”.

As to `COc1ccc2c(c1)c(CC(=O)O)c(C)n2C(=O)c1ccc(Cl)cc1` [indomethacin], the Side effects entry in data set [1] is on record as “some side effects”. In addition, the “Multiple of the therapeutic dose that is non-toxic in animals” value in data set [8] is 16 fold.

Consider `CN(Cc1cnc2nc(N)nc(N)c2n1)c1ccc(C(=O)N[C@@H](CCC(=O)O)C(=O)O)cc1` [methotrexate], for which the Response of psoriasis result in the data set on psoriasis is listed as “the psoriasis cleared”.

Consider `COc1ccc2cc([C@H](C)C(=O)O)ccc2c1` [naproxen], for which the Side effects entry in [1] is “some side effects”.

`CN1C(C(=O)Nc2ccccn2)=C(O)c2ccccc2S1(=O)=O` [piroxicam]: the “Comments on outcome (in words)” value in [7] is listed as “nega-; also recorded: poor relief”.

Consider hyaluronic acid, for which the “Radioactivity in tumor tissue (in words)” value in data set [9] is given as “can enhance 5-FU uptake in tumor tissue”.

For the compound sodium hyaluronate, the “Cellular infiltration of the vitreous and anterior chamber, flare, haze, pathological changes” value in [10] was “no significant cellular infiltration of the vitreous and anterior chamber, no flare in the aqueous humour, no haze or flare in the vitreous, and no pathological changes”.

(Values after patent US5977088A (priority 1995, dated 1999).)
